Literature values, collected in US8846744B2, “Pharmaceutical compositions of co-crystals of tramadol and coxibs” (Laboratorios del Dr. Esteve, S.A., priority 2010, dated 2014).

For `Cc1ccc(-c2cc(C(F)(F)F)nn2-c2ccc(S(N)(=O)=O)cc2)cc1` [Celecoxib, 4-[5-(4-methylphenyl)-3-(trifluoromethyl)pyrazol-1-yl]benzenesulfonamide], the “solubility in water” value is given as “practically insoluble”.
